In patent publication US20250163076A1, “SYNTHESIS OF BRUTON'S TYROSINE KINASE INHIBITORS” (JANSSEN PHARMACEUTICA NV, priority 2022, published 2025):
Values after ≈ are worked out from the molar mass of the structure shown. Read-outs that look alike come from different tables or passages of the source.

Experiments:
[1] = Human liver microsomes T1/2; type: in vitro ADME; details: Table 5; for half-life: human, liver microsomes
[2] = system: B-cell activation via B-cell receptor in rat whole blood; assay: Rat whole blood assay, anti-IgD stimulated B-cell activation; type: cell-based; details: for IC50: Rattus norvegicus, B-cell, anti-IgD stimulation
Procedure: (§1) The activity of Compound M was assessed in rat and human whole blood assays using anti-IgD and anti-IgM stimulation, respectively, to trigger B-cell activation via B-cell receptor.

[3] = PPB % free, cyno; type: in vitro ADME; details: cynomolgus monkey, plasma
[4] = system: anti-IgM induced B cell activation in human whole blood; assay: Human whole blood assay, anti-IgM induced B cell activation; type: cell-based; details: anti-IgM stimulation
Procedure: as §1

[5] = PPB % free, dog; type: in vitro ADME; details: plasma
[6] = PPB % free, rat; type: in vitro ADME; details: plasma
[7] = molecular target: BTK (Homo sapiens, UniProt Q06187); assay: BTK covalent inhibition kinetics (KI, kinact, kinact/KI); type: biochemical; details: for kinact/KI: read-out: kinact/KI
Procedure: The development of the structure-activity relationship was conducted by characterizing the non-covalent affinity of each inhibitor for BTK (KI) and the first order rate constant for irreversible covalent bond formation (kinact). The second order rate constant kinact/KI ratio is used to assess the covalent inhibitor potency because it is independent of incubation time and substrate concentrations (Copeland, R. A. Evaluation of Enzyme Inhibitors in Drug Discovery: a Guide for Medicinal Chemists and Pharmacologists; 2nd ed.; Wiley: Hoboken, N.J., 2013).

[8] = system: Mouse CD69 cell; assay: Mouse CD69 splenocyte assay; type: cell-based
[9] = PPB % free, human; details: plasma
[10] = Aqueous solubility at pH 2 and pH 7; type: physicochemical; details: for Solubility: Table 5
[11] = Liver microsomes T1/2 (Table 3); type: in vitro ADME; details: species not given
[12] = human, plasma
[13] = Rat oral bioavailability (% F); type: in vivo; details: for bioavailability: in vivo, oral
[14] = Epimerization kinetics / rotational energy barrier of atropisomers in solvents; type: physicochemical
Procedure: The rotational energy barrier of compound of Formula (II) atropisomers was estimated according to the method known in the art. The rotational barrier was determined in several solvents and their aqueous mixtures and the results are reported in Table 13, where an average value of 120.5 kJ mol^−1 or 28.8 kcal mol^−1, corresponding to epimerization half-lives of 63.8 and 4.0 months at 20° C. and 37° C., respectively, were obtained, placing this compound on the top segment of Class 2 atropisomers according to the classification systems known in the art. The rotational barrier is slightly influenced by the solvent and increases in the order 1-butanol<2-butanol<1-propanol<propylene carbonate. Additionally, increasing amounts of water increased substantially the rotational barrier in all solvents with the highest value obtained in 1-propanol/water 33/67 w/w % system. Unfortunately, due to the low aqueous solubility of compound of Formula (II) in water, epimerization studies could not be accurately conducted in pure water.
Enriched compound of Formula (II) of the P isomer was dissolved in the respective solvent to create a concentration of ˜1 wt % and was placed in a standard screw cap vial (1.8 mL) equipped with a magnetic stirring bar. Subsequently, the vial was placed in the heating block of a parallel reactor setup (Crystal16, Technobis B.V.) which was preheated to the desired temperature (80° C.-100° C., depending on the solvent). At given time intervals, small aliquot samples were taken in an HPLC vial, diluted, and the diastereomeric excess of the mixture was determined by an UPLC apparatus, equipped with an Acquity UPLC BEH C18 column (0.6 ml/min, gradient 10 mM ammonium acetate acetonitrile 95-5 v/v % and acetonitrile at 35° C.). The time points and corresponding decay of diastereomeric excess (d.e.) were plotted as t vs ln (1/d.e.) to determine the interconversion rate constant, rotational energy barrier and epimerization half-life at the respective solvent and temperature:
[formula] [formula] [formula] • where [P], [M] are the concentrations of the P and M isomers, respectively, ke is the interconversion rate constant (s^−1), ΔGe^‡ is the rotational energy barrier (KJ mol^−1), T is the absolute temperature, kB, h and R are the Boltzmann, Planck and universal gas constants, respectively and t1/2 is the epimerization half-life. An example of the data treatment and determination procedure for ke is shown in FIG. 9 for propylene carbonate system at 100° C.

[15] = as above; type: physicochemical; details: buffer, t1/2 at 100° C.
[16] = Table 5, average of 2 independent determinations (± SD)
[17] = aqueous medium, aqueous buffer, pH 7, read-out: Solubility pH 7
[18] = aqueous medium, simulated gastric fluid, pH 2, read-out: Solubility pH 2

BTK, sequence (Q06187 whole entry): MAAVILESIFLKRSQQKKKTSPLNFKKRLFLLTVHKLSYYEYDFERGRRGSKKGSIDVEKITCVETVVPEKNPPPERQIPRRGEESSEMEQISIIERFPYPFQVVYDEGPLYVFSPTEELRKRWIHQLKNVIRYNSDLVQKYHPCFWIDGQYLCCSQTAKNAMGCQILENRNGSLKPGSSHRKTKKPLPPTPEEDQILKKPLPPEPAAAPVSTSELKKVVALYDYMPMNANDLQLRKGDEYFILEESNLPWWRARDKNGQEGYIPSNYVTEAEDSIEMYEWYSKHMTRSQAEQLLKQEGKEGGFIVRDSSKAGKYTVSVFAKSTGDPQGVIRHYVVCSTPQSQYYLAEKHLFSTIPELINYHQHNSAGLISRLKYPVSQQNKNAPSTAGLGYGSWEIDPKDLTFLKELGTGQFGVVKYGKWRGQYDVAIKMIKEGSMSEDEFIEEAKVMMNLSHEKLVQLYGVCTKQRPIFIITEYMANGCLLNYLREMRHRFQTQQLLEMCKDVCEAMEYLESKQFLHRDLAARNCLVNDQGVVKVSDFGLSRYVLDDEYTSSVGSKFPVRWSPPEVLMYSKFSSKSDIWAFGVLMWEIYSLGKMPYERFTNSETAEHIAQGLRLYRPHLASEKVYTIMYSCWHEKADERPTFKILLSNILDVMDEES

For `C=CC(=O)N[C@H]1CCC[C@H]1NC(=O)c1sc2nccc3c2c1NC(=O)N3c1cnc(CC(C)C)cc1C` (single isomer, unassigned) [Compound M], the half-life [1] was 0.0264 days, the IC50 [2] was 41 ± 12 nM and the “more potent in rat whole blood” value ([2]; compared to Compound A) was 3 fold. It also gave a fraction unbound [3] of 0.032, an IC50 [4] of 89 ± 12 nM and a fraction unbound [5] of 0.063. It also gave a fraction unbound [6] of 0.037, a Ki [7, 16] of 48.5 ± 2.9 nM and a kinact [7, 16] of 0.000348 s⁻¹. The kinact/KI ([7]; Table 5) was 7290 ± 590 M⁻¹ s⁻¹, the IC50 [8] was 99 ± 68 nM and the fraction unbound [9] was 0.031. The “pH 2 solubility” value ([10]; Table 6, pH 2) was 320 μM, the “pH 7 solubility” value ([10]; Table 6, pH 7) was 7 μM and the Solubility [10, 17] was 7 µM (≈ 3.63 µg/mL). The Solubility [10, 18] was 320 µM (≈ 166 µg/mL).
In the case of `C=CC(=O)N1CC[C@@H](NC(=O)c2sc3nccc4c3c2NC(=O)N4c2ccc(Oc3ccccc3)cc2C)C1` [Compound A], the IC50 [2] is reported as 130 ± 11 nM, the “Liver microsomes T1/2” value ([11]; first of the two values printed 23/40) is reported as 0.016 days and the half-life ([11]; liver microsomes, second of the two values printed 23/40) is reported as 0.0278 days. It also gave an IC50 [4] of 84 ± 39 nM, a PPB % free [12] of 0.16% and a Ki ([7]; Table 3, average of two independent determinations (±SD)) of 28.8 ± 21 nM. The “pH 2 solubility” value ([10]; Table 3, pH 2) was <4/<4 μM, the “pH 7 solubility” value ([10]; Table 3, pH 7) was <4/<4 μM and the “pH 2 solubility” value ([10]; Table 6, pH 2) was <4/<4 μM. The “pH 7 solubility” value ([10]; Table 6, pH 7) was <4/<4 μM, the “Rat % F (1 g/kg, crystalline suspension)” value ([13]; 1 g/kg, crystalline suspension) was <1% and the bioavailability ([13]; 1 g/kg, crystalline suspension, read-out: Rat % F (1 g/kg, crystalline suspension)) was < 1%. The bioavailability ([13]; 20% HP-β-CD solution, read-out: Rat % F (20% HP-β-CD solution)) was 29.7%.
`C=CC(=O)N[C@H]1CCC[C@H]1NC(=O)c1sc2nccc3c2c1NC(=O)N3c1cnc(CC(C)C)cc1C` [Formula (II), N-((1R,2S)-2-acrylamidocyclopentyl)-5-(6-isobutyl-4-methylpyridin-3-yl)-4-oxo-4,5-dihydro-3H-1-thia-3,5,8-triazaacenaphthylene-2-carboxamide] gave a ΔG ([14]; 1-butanol) of 28.49 kcal/mol, a half-life ([14]; 1-butanol, t1/2 at 20° C.) of 1100 days and a ΔG ([14]; 1-butanol/water 85/15 w/w %) of 28.68 kcal/mol. The half-life ([14]; 1-butanol/water 85/15 w/w %, t1/2 at 20° C.) was 1460 days, the ΔG ([14]; 1-propanol) was 28.7 kcal/mol and the half-life ([14]; 1-propanol, t1/2 at 20° C.) was 1460 days. It also gave a ΔG ([14]; 1-propanol/water 33/67 w/w %) of 29.09 kcal/mol, a half-life ([14]; 1-propanol/water 33/67 w/w %, t1/2 at 20° C.) of 3290 days and a ΔG ([14]; 1-propanol/water 50/50 w/w %) of 28.97 kcal/mol. It also gave a half-life ([14]; 1-propanol/water 50/50 w/w %, t1/2 at 20° C.) of 2560 days, a ΔG ([14]; 1-propanol/water 67/33 w/w %) of 28.85 kcal/mol and a half-life ([14]; 1-propanol/water 67/33 w/w %, t1/2 at 20° C.) of 2190 days. For the same compound, the ΔG ([14]; 1-propanol/water 80/20 w/w %) was 28.82 kcal/mol, the half-life ([14]; 1-propanol/water 80/20 w/w %, t1/2 at 20° C.) was 2190 days and the ΔG ([14]; 2-MeTHF) was 28.54 kcal/mol. The half-life ([14]; 2-MeTHF, t1/2 at 20° C.) was 1100 days, the ΔG ([14]; 2-butanol) was 28.54 kcal/mol and the half-life ([14]; 2-butanol, t1/2 at 20° C.) was 1100 days. The ΔG ([14]; 2-butanol/water 70/30 w/w %) was 28.78 kcal/mol, the half-life ([14]; 2-butanol/water 70/30 w/w %, t1/2 at 20° C.) was 1830 days and the ΔG ([14]; 3-methyl-1-butanol) was 28.39 kcal/mol. The half-life ([14]; 3-methyl-1-butanol, t1/2 at 20° C.) was 1100 days, the ΔG ([14]; 3-methyl-1-butanol/water 91/9 w/w %) was 28.61 kcal/mol and the half-life ([14]; 3-methyl-1-butanol/water 91/9 w/w %, t1/2 at 20° C.) was 1460 days. It also gave a ΔG ([14]; Acetonitrile) of 29.16 kcal/mol, a half-life ([14]; Acetonitrile, t1/2 at 20° C.) of 3650 days and a ΔG ([14]; EA) of 28.59 kcal/mol. For the same compound, the half-life ([14]; EA, t1/2 at 20° C.) was 1460 days, the ΔG ([14]; EtOH) was 28.99 kcal/mol and the half-life ([14]; EtOH, t1/2 at 20° C.) was 2560 days. For the same compound, the ΔG ([14]; IPA) was 28.87 kcal/mol, the half-life ([14]; IPA, t1/2 at 20° C.) was 2190 days and the ΔG ([14]; IPAC) was 28.73 kcal/mol. The half-life ([14]; IPAC, t1/2 at 20° C.) was 1830 days, the ΔG ([14]; MEK) was 28.8 kcal/mol and the half-life ([14]; MEK, t1/2 at 20° C.) was 1830 days. The ΔG ([14]; MIBK) was 28.54 kcal/mol, the half-life ([14]; MIBK, t1/2 at 20° C.) was 1100 days and the ΔG ([14]; Propylene carbonate) was 28.9 kcal/mol. The ΔG ([14]; Toluene) was 30.02 kcal/mol, the half-life ([14]; buffer, t1/2 at 85° C.) was 0.156 days and the half-life ([14]; buffer, t1/2 at 120° C.) was 0.00417 days. It also gave a half-life ([14]; propylene carbonate, t1/2 at 20° C.) of 2190 days, a ΔG ([14]; propylene carbonate/water 93/7 w/w %) of 28.94 kcal/mol and a half-life ([14]; propylene carbonate/water 93/7 w/w %, t1/2 at 20° C.) of 2560 days. The half-life [15] was 0.0299 days.
`C=CC(=O)N1CCC(NC(=O)c2sc3nccc4c3c2NC(=O)N4c2cnc(CC(C)C)cc2C)C1` (stereo not drawn) [K] gave a half-life [1] of 0.0368 days, a Ki [7, 16] of 2550 nM and a kinact [7, 16] of 0.000255 s⁻¹. For the same compound, the kinact/KI ([7]; Table 5) was 98.5 ± 12 M⁻¹ s⁻¹, the Solubility [10, 17] was 172 µM (≈ 86.8 µg/mL) and the Solubility [10, 18] was > 400 µM.
With `C=CC(=O)NCCNC(=O)c1sc2nccc3c2c1NC(=O)N3c1cnc(CC(C)C)cc1C` [L] the “Human liver microsomes T1/2” value [1] was 0.0188 days, the Ki [7, 16] was 2430 nM and the kinact [7, 16] was 0.000317 s⁻¹. The kinact/KI ([7]; Table 5) was 131 ± 2 M⁻¹ s⁻¹, the Solubility ([10]; pH 7, read-out: Solubility pH 7) was 220 µM (≈ 105 µg/mL) and the Solubility [10, 18] was > 400 µM.
